From article PMC8253976, “Extracellular loops of the serotonin transporter act as a selectivity filter for drug binding” (The Journal of Biological Chemistry, 2021)
Read-outs that look alike come from different tables or passages of the source.

Assays:
SERT [1] = biological target: T1, SERT (Homo sapiens, UniProt P31645); assay: Electrophysiological measurement of methylphenidate binding kinetics to SERT (peak current inhibition and recovery); type: cell-based; parameters: expressed in transfected cells; conditions: for koff: peak current recovery after washout, read-out: dissociation rate koff from SERT; for association rate constant kon for binding to SERT / kon: y-intercept constrained to koff; for kon: read-out: association rate constant kon for binding to SERT
T1 sequence (P31645 whole entry): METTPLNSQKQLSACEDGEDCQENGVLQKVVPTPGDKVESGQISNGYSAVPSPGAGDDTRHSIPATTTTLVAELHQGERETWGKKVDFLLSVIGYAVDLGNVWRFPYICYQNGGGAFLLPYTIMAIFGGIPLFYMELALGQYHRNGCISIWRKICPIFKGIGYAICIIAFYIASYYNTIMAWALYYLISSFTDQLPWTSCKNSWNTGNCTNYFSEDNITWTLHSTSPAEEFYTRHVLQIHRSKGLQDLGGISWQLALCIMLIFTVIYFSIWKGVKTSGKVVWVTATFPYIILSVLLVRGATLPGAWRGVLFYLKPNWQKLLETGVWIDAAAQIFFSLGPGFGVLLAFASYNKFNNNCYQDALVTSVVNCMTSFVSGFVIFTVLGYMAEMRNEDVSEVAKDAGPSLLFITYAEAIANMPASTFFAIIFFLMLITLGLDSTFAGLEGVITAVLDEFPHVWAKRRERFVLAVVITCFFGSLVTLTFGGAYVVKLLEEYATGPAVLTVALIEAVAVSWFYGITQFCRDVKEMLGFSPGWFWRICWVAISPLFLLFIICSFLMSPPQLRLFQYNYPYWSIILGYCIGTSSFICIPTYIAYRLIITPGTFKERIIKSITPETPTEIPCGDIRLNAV
Procedure: Accordingly, we explored the hypothesis that restricting the flexibility of extracellular loops may increase the affinity of methylphenidate. […] We therefore resorted to an electrophysiological approach, which relies on the substrate-induced peak current through SERT for determining the occupancy of the binding site by methylphenidate. […] The recordings were done in the presence of high internal Na^+ (152 mM) because a high internal Na^+ concentration eliminates the steady-state current component ([5]). The isolated peak current can be quantified with high precision ([5]). The association rate of methylphenidate in the absence (Fig. 9A) and presence (Fig. 9B) of 15B8 Fab was measured by applying 5-HT (30 μM) for 3 s to obtain the reference current. Cells were subsequently exposed to methylphenidate for time intervals varying between 0.2, 0.5, 1, 2, 5, and 10 s prior to eliciting a current by fresh superfusion with 5-HT. This allowed for monitoring the onset of the methylphenidate-induced inhibition of the peak current.
Peak currents were isolated (i.e., the steady-state current was suppressed) by a high concentration of Na^+ (152 mM) in the internal solution in the patch pipet. Shown is the compilation of representative peak current traces from a single cell. […] The dashed lines were drawn by fitting the decline in peak current amplitude to an equation for a monoexponential decay to a residual activity. C and D, the experiments were carried out as outlined in panels A and B with 10, 30, 100, and 300 μM methylphenidate (MPH) in the absence (C) and presence of 300 nM 15B8 Fab 8 (D). The peak current reduction was normalized by dividing test currents by the reference current and plotted as a function of time. Data are means ± SD from three to seven independent recordings for each concentration of methylphenidate. […] Then, the peak currents were elicited by rapid application of 30 μM 5-HT with 0, 0.2, 0.5, 1, 2, 5, and 10 s delay to observe its recovery.

SERT [2] = biological target: T1, SERT; assay: [^3H]imipramine binding to membranes harboring GFP-tagged SERT; parameters: expressed in transfected cells; membrane preparation; conditions: in the presence of 8B6 scFv, 15B8 Fab, or antiSERT-EL4 antibody; data not shown

## COC(=O)C(c1ccccc1)C1CCCCN1 (stereo not drawn) [methylphenidate]
SERT [1]; 10 μM methylphenidate, absence of 15B8 Fab
  apparent on-rate kapp: 0.36 ± 0.12 s⁻¹
SERT [1]; 10 μM methylphenidate, presence of 300 nM 15B8 Fab
  apparent on-rate kapp: 1.20 ± 0.42 s⁻¹
SERT [1]; 30 μM methylphenidate, absence of 15B8 Fab
  apparent on-rate kapp: 0.87 ± 0.20 s⁻¹
SERT [1]; 30 μM methylphenidate, presence of 300 nM 15B8 Fab
  apparent on-rate kapp: 1.29 ± 0.27 s⁻¹
SERT [1]; 100 μM methylphenidate, absence of 15B8 Fab
  apparent on-rate kapp: 1.53 ± 0.40 s⁻¹
SERT [1]; 100 μM methylphenidate, presence of 300 nM 15B8 Fab
  apparent on-rate kapp: 2.72 ± 0.45 s⁻¹
SERT [1]; 300 μM methylphenidate, absence of 15B8 Fab
  apparent on-rate kapp: 3.46 ± 0.51 s⁻¹
SERT [1]; 300 μM methylphenidate, presence of 300 nM 15B8 Fab
  apparent on-rate kapp: 6.54 ± 1.04 s⁻¹
SERT [1]; absence of 15B8 Fab
  koff: 0.89 ± 0.14 s⁻¹
  association rate constant kon for binding to SERT: 8.55 ± 1.03 × 10^3 M^−1 s^−1
  kon: 8950 ± 1.03e+06 M⁻¹ s⁻¹
SERT [1]; presence of 15B8 Fab (300 nM)
  koff: 0.8 ± 0.12 s⁻¹
  association rate constant kon for binding to SERT: 1.92 ± 0.06 × 10^4 M^−1 s^−1
  kon: 19600 ± 6e+06 M⁻¹ s⁻¹
SERT [2]
  competition curve versus [^3H]imipramine: shift to the left
